pIC50: −log10 of the molar value. Entries after “also recorded” stand apart in the source; their conditions may differ.
Columns and labels:
[1] = Stability in PBS and artificial gastric and intestinal fluid (residual parent compound); format: physicochemical; conditions: for Stability in PBS/saline (residual parent compound): initial 100 μM
Method: The logD value (distribution coefficient) of the compound was determined by means of the shake flask method, measuring the distribution of the solute in octanol and phosphate-buffered saline (PBS, pH 7.4). The concentration of ZED1227 in the immiscible solvents was determined by HPLC (vide supra). The stability in PBS (pH 7.4 or acidified to pH 5.0), in artificial gastric, and intestinal fluid was calculated as the percentage of residual parent compound after incubation for 24 h at 37 °C, using an initial concentration of 100 μM.

[2] = Caco-2 cell permeability assay (CacoReady); format: in vitro ADME; conditions: human, apical 200 μM, HBSS pH 6.5, 1% DMSO
Method: The permeability coefficient (Papp value) was obtained from Caco-2 monolayer studies predicting oral/intestinal bioavailability of the tested compound. The assay was performed using CacoReady^TM ready-to-use kits from ReadyCell according to the manufacturer’s protocol. […] The concentration of ZED1227 in the basal and apical media was determined by HPLC. The initial concentration of ZED1227 in the apical medium was 200 μM. Propranolol (20 μM final concentration) was used as a control to validate each ready-to-use plate. Compound stock solutions were prepared in DMSO and further diluted to 1% DMSO using HBSS pH 6.5 to yield the desired working concentration.

Caco-2 cells = experiment: BrdU cell proliferation ELISA, Caco-2; format: cell-based, human; conditions: up to 1,000 μM, 24 h + 24 h
Method: Cytotoxicological analysis of ZED1227 was performed using Huh7 (human liver carcinoma, CLS Cell Lines Service GmbH, Eppelheim, Germany) and Caco-2 cells (human epithelial colorectal adenocarcinoma, Sigma Aldrich, Taufkirchen, Germany) with respect to the effect on proliferation and viability, according to the assay protocols provided by the manufacturers of the respective kits. The Cell Proliferation ELISA (BrdU, colorimetric) was purchased from Roche (Mannheim, Germany), whereas the Cell Proliferation and Cytotoxicity Assay EZ4U was purchased from Biomedica (Vienna, Austria). Briefly, Caco-2 cells (in MEM with 1% non-essential amino acid solution, both Sigma Aldrich (Taufkirchen, Germany), 10% fetal bovine serum, 2 mM L-glutamine, 100 U/mL penicillin–streptomycin, all from Gibco) or Huh7 cells (in DMEM low glucose, Sigma Aldrich (Taufkirchen, Germany), 10% fetal bovine serum, 1 mM sodium pyruvate, 100 U/mL penicillin–streptomycin, all from Gibco) were cultured in 96 well plates, using 2.5 μg/mL cycloheximide and 0.2 μg/mL camptothecin-treated cells as positive control. In the 5-bromo-2′-deoxyuridine (BrdU) assay (determination of cell proliferation), the cells were incubated with ZED1227 working solution (1% DMSO in culture medium) up to a concentration of 1,000 μM for 24 h, followed by addition of BrdU into the culture medium and further culturing for 24 h. […]

hTG2 = target: T1, hTG2 (Homo sapiens, UniProt P21980); experiment: Fluorescent transamidation assay (DCC-assay), hTG2; format: biochemical; conditions: recombinant human TG2, transamidation assay
T1 construct: purchased Zedira T022
T1 sequence (P21980 1-687): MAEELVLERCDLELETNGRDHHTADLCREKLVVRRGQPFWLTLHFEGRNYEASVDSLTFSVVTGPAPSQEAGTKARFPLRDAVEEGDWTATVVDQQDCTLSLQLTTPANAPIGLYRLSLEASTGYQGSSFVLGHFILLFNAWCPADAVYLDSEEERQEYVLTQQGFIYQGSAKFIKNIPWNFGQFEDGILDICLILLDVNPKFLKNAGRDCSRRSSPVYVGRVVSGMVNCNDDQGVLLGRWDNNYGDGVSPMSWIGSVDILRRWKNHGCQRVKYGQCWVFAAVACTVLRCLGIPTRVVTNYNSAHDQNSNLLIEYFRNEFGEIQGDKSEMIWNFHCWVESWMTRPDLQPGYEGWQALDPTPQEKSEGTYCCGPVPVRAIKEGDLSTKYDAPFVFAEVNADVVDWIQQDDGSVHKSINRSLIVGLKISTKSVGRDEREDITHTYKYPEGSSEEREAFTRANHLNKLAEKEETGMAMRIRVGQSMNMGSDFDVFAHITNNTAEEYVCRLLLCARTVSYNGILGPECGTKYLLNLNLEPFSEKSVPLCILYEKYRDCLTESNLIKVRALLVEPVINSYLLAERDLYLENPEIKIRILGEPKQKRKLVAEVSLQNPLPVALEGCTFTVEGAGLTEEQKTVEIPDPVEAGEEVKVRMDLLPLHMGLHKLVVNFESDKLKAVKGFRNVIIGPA
Method: Inhibition data were determined using the fluorescent transamidation assay (dansylcadaverine incorporation into glutamine-donor substrate N,N-dimethyl casein, DCC-assay). Briefly, to 15 μL of ZED1227 solution (dissolved and serial diluted in 2% (v/v) DMSO/assay buffer), 285 μL assay buffer [47.5 mM tris(hydroxymethyl)aminomethane, 9.5 mM CaCl2, 9.5 mM glutathione, 2.4% (v/v) glycerol, 190 mM NaCl, pH 8.0] containing dansylcadaverine (15.9 μM), N,N-dimethyl casein (3.8 μM) and the indicated recombinant transglutaminase enzyme [0.95 μg/mL hTG1 (T035), 0.81 μg/mL hTG2 (T022), 0.83 μg/mL hTG6 (T021), all from Zedira] were added, mixed and the kinetic measurement started immediately. In the case of hFXIII-A2 (0.83 μg/mL, T027, Zedira), the assay buffer contained human α-thrombin (5.2 × 10^−3 U/μL, T056, Zedira). The mixture was incubated for 20 min at room temperature to activate FXIII. In the case of hTG3a (0.81 μg/mL, T013, Zedira), full enzymatic activity was obtained by incubation for 80 min at 37 °C in assay buffer before addition of the inhibitor and start of the kinetics.
Fluorescence emission was continuously monitored for 30 min at λem = 500 nm (λex = 330 nm) and 37 °C using a CLARIOstar fluorescence plate reader (BMG Labtech, Ortenberg, Germany). All measurements were performed in triplicate. The respective IC50 (and IC90 for TG2) values were calculated by non-linear regression using the MARS software package (BMG Labtech). An irreversible-acting inhibitor, such as ZED1227, should, correctly, be characterized by the second-order rate constant k2nd, as detailed by Keillor [46]. However, such data are rather abstract and difficult to comprehend.
To facilitate comparability during lead structure optimization and to roughly estimate concentrations needed at the target site, the apparent IC50 values (calculated by four-parameter non-linear fit by MARS software) for irreversible inhibitors are more instructive and are therefore reported. Further, we report the potency of commercially available reference inhibitors Z006 (“Z-DON”), Z013 (ZED754), and T101 (all Zedira). To gain deeper mechanistic insight, we discuss the second-order rate constants (k2nd) published for Z006 and ZED754 in relation to their respective IC50 values.

CCC(CC)CNC(=O)Cn1cccc(NC(=O)[C@H](CC/C=C/C(=O)OC)NC(=O)c2cncn2C)c1=O [ZED1227, (S,E)-Methyl 7-(1-(2-(2-ethylbutylamino)-2-oxoethyl)-2-oxo-1,2-dihydropyridin-3-ylamino)-6-(1-methyl-1H-imidazole-5-carboxamido)-7-oxohept-2-enoate]
Recovery at low pH and in simulated gastric and intestinal fluid ([1]; after 24 h, summary statement): > 80% | Stability in PBS/saline (residual parent compound) ([1]; pH 5.0, 24 h, 37 °C): 89% | Stability in PBS/saline (residual parent compound) ([1]; pH 7.4, 24 h, 37 °C): 10% | Stability in artificial gastric fluid (residual parent compound) ([1]; simulated gastric fluid pH 1.2, 24 h, 37 °C): 95% | Stability in artificial intestinal fluid (residual parent compound) ([1]; simulated intestinal fluid pH 6.5, 24 h, 37 °C): 82% | Papp A→B at 200 μM [2]: < 1 ×10⁻⁶ cm/s | Cytotoxicity: Proliferation, Caco-2 cells (Caco-2 cells): nor did it affect cell proliferation rates; also recorded: no effect up to 1,000 μM no effect up to 1,000 μM no effect up to 1,000 μM no effect up to 1,000 μM | IC90 (hTG2): 300 nM | pIC50 (hTG2; apparent IC50 of irreversible inhibitor, read-out: App. IC50 hTG2): 7.28

From article PMC9139979, “Features of ZED1227: The First-In-Class Tissue Transglutaminase Inhibitor Undergoing Clinical Evaluation for the Treatment of Celiac Disease” (Cells, 2022)
